Results: patent US10711004B2 (Genentech, Inc., priority 2018, dated 2020)
Read-outs that look alike come from different tables or passages of the source.

Molecular target: human TRPA1 channel (Homo sapiens (Human), UniProt O75762)
Assay: hTRPA1 CHO Ca2+ FLIPR Tetra assay, block of cinnamaldehyde induced calcium influx
Type: cell-based
Settings: for IC50: CHO cells expressing TRPA1, Hill coefficient fixed to 1.5
Summary of the method: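 IC50 values come from fixed-Hill fits of inhibition of cinnamaldehyde-induced (about EC50 level) calcium influx measured by FLIPR Tetra. Before agonist, TRPA1-expressing CHO cells loaded with calcium indicator were exposed to compound for 10 or 90 min at room temperature in HEPES-buffered HBSS, pH 7.4, with 0.02% BSA.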

[1] = read-out: hTRPA1 IC50 (10 min), compounds incubated 10 minutes at room temperature before cinnamaldehyde agonist
[2] = read-out: hTRPA1 IC50 (90 min), compounds incubated 90 minutes at room temperature before cinnamaldehyde agonist

Chain of human TRPA1 channel (O75762 whole entry): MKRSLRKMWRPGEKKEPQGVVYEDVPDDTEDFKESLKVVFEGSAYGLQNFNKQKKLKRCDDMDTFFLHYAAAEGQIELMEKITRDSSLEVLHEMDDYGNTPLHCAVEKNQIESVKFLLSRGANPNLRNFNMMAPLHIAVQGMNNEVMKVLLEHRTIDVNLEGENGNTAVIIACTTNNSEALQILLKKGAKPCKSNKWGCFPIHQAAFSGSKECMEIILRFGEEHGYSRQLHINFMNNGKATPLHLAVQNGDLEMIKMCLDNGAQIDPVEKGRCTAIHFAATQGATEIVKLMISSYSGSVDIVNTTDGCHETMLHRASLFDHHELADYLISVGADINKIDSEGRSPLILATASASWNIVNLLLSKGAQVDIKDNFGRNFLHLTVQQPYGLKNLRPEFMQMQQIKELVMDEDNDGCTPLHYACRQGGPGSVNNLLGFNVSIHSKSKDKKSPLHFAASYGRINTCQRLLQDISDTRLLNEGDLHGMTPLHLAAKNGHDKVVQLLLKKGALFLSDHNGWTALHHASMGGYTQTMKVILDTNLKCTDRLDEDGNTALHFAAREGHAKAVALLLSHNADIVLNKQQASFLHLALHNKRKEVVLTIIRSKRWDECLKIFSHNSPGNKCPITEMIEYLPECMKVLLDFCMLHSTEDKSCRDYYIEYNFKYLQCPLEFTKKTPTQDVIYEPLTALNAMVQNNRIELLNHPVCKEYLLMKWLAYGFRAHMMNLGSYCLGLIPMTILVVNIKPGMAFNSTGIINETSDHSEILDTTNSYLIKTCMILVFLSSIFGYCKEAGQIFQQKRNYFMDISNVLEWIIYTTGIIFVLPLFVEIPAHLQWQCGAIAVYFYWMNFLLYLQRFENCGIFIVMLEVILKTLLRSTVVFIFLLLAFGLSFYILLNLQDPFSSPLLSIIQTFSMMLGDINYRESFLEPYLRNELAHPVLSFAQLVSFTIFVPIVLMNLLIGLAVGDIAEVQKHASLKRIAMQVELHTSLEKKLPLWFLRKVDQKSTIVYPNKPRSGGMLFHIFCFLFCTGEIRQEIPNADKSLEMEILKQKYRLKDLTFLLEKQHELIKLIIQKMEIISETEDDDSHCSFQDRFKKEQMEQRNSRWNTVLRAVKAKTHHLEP

Compound	IC50 [1] [µM]	IC50 [2] [µM]	TRPA1 IC50 compared with 3-azabicyclo[3.1.0]hexene linker and cyclobutylene linker analogues (bicyclo[3.1.0]hexene linker compounds versus same-substituent analogues (compounds 16, 191; 26, 1))
Cc1ccnc2ncn(Cc3nc([C@H]4C[C@](F)(c5ccc(Cl)cc5)C4)no3)c(=O)c12 [Example Compound 38, 3-((3-((1s,3s)-3-(4-chlorophenyl)-3-fluorocyclobutyl)-1,2,4-oxadiazol-5-yl)methyl)-5-methylpyrido[2,3-d]pyrimidin-4(3H)-one]	0.0289	–	–
O=c1c2cccnc2ncn1Cc1nc([C@@H]2[C@H]3C=C(c4cc(Cl)ccn4)C[C@H]32)no1 [Example Compound 162, 3-((3-((1R,5R,6S)-3-(4-chloropyridin-2-yl)bicyclo[3.1.0]hex-2-en-6-yl)-1,2,4-oxadiazol-5-yl)methyl)pyrido[2,3-d]pyrimidin-4(3H)-one]	0.132	0.088	–
O=c1c2cccnc2ncn1Cc1nc([C@H]2[C@@H]3C=C(c4cc(Cl)ccn4)C[C@@H]32)no1 [Example Compound 161, 3-((3-((1S,5S,6R)-3-(4-chloropyridin-2-yl)bicyclo[3.1.0]hex-2-en-6-yl)-1,2,4-oxadiazol-5-yl)methyl)pyrido[2,3-d]pyrimidin-4(3H)-one]	0.315	0.2	–
Cc1cc(C#N)nc2ncn(Cc3nc([C@H]4[C@@H]5CN(c6cc(Cl)ccn6)C[C@@H]54)no3)c(=O)c12 [Example Compound 107, 3-((3-((1R,5S,6r)-3-(4-chloropyridin-2-yl)-3-azabicyclo[3.1.0]hexan-6-yl)-1,2,4-oxadiazol-5-yl)methyl)-5-methyl-4-oxo-3,4-dihydropyrido[2,3-d]pyrimidine-7-carbonitrile]	0.049	0.0091	–
O=c1c2cccnc2ncn1Cc1nc([C@H]2C[C@](O)(c3cccc(Cl)c3)C2)no1	0.281	–	–
Cn1cnc2ncn(Cc3nc([C@H]4[C@@H]5CN(c6ccnc(F)c6)C[C@@H]54)no3)c(=O)c21 [Example Compound 175, 1-((3-((1R,5S,6r)-3-(2-fluoropyridin-4-yl)-3-azabicyclo[3.1.0]hexan-6-yl)-1,2,4-oxadiazol-5-yl)methyl)-7-methyl-1,7-dihydro-6H-purin-6-one]	0.42	0.073	–
COc1ccc(N2C[C@@H]3[C@H](C2)[C@H]3c2noc(Cn3cnc4ncn(C)c4c3=O)n2)cc1 [Example Compound 35, 7-methyl-1-[[3-[(1R,5S,6r)-3-[4-methoxyphenyl]-3-azabicyclo[3.1.0]hexan-6-yl]-1,2,4-oxadiazol-5-yl]methyl]purin-6-one]	0.048	–	–
Cn1cnc2ncn(Cc3nc([C@H]4[C@@H]5CN(c6cccc(C7CC7)c6)C[C@@H]54)no3)c(=O)c21	0.112	–	–
Cn1ncc2ncn(Cc3nc([C@H]4[C@@H]5CN(c6cc(Cl)ccn6)C[C@@H]54)no3)c(=O)c21 [Example Compound 155, 6-((3-((1R,5S,6r)-3-(4-chloropyridin-2-yl)-3-azabicyclo[3.1.0]hexan-6-yl)-1,2,4-oxadiazol-5-yl)methyl)-1-methyl-1,6-dihydro-7H-pyrazolo[4,3-d]pyrimidin-7-one]	0.0893	0.073	–
O=c1c2ccncc2ncn1Cc1nc([C@H]2[C@@H]3CN(c4ccccc4)C[C@@H]32)no1 [Example Compound 195, 3-((3-((1R,5S,6r)-3-phenyl-3-azabicyclo[3.1.0]hexan-6-yl)-1,2,4-oxadiazol-5-yl)methyl)pyrido[3,4-d]pyrimidin-4(3H)-one]	0.0994	0.11	–
Cn1cnc2ncn(Cc3nc([C@H]4C[C@H](Oc5cccc(C#N)c5)C4)no3)c(=O)c21 [Example Compound 178, 3-((1r,3r)-3-(5-((7-methyl-6-oxo-6,7-dihydro-1H-purin-1-yl)methyl)-1,2,4-oxadiazol-3-yl)cyclobutoxy)benzonitrile]	0.0815	–	–
O=c1c2cccnc2ncn1Cc1nc([C@H]2[C@@H]3C=C(c4cccc(Cl)c4)C[C@@H]32)no1 [Example Compound 180, 3-((3-((1S,5S,6R)-3-(3-chlorophenyl)bicyclo[3.1.0]hex-2-en-6-yl)-1,2,4-oxadiazol-5-yl)methyl)pyrido[2,3-d]pyrimidin-4(3H)-one]	0.0233	0.024	–
Cn1cnc2ncn(Cc3nc([C@H]4[C@@H]5CN(c6cc(F)c(Cl)c(F)c6)C[C@@H]54)no3)c(=O)c21 [Example Compound 271, 7-methyl-1-[[3-[(1S,5R)-3-(4-chloro-3,5-difluoro-phenyl)-3-azabicyclo[3.1.0]hexan-6-yl]-1,2,4-oxadiazol-5-yl]methyl]purin-6-one]	0.0347	0.011	–
Cn1cnc2ncn(Cc3nc([C@H]4[C@@H]5CN(c6ccccc6Cl)C[C@@H]54)no3)c(=O)c21	0.0773	–	–
Cn1cnc2ncn(Cc3nc([C@@H]4[C@H]5C=C(c6ccc(Cl)cn6)C[C@H]54)no3)c(=O)c21 [Example Compound 123, 1-((3-((1R,5R,6S)-3-(5-chloropyridin-2-yl)bicyclo[3.1.0]hex-2-en-6-yl)-1,2,4-oxadiazol-5-yl)methyl)-7-methyl-1,7-dihydro-6H-purin-6-one]	0.296	0.36	–
Cn1cnc2ncn(Cc3nc([C@H]4[C@@H]5CN(c6cc7ccccc7cn6)C[C@@H]54)no3)c(=O)c21 [Example Compound 120, 1-((3-((1R,5S,6r)-3-(isoquinolin-3-yl)-3-azabicyclo[3.1.0]hexan-6-yl)-1,2,4-oxadiazol-5-yl)methyl)-7-methyl-1,7-dihydro-6H-purin-6-one]	0.0908	0.081	–
Cn1cnc2ncn(Cc3nc([C@H]4[C@@H]5CN(c6ccc7c(c6)CCC7)C[C@@H]54)no3)c(=O)c21	0.111	–	–
Cn1cnc2ncn(Cc3nc([C@H]4[C@@H]5CN(c6cc(Cl)c(F)cc6F)C[C@@H]54)no3)c(=O)c21 [Example Compound 219, 1-((3-((1R,5S,6r)-3-(5-chloro-2,4-difluorophenyl)-3-azabicyclo[3.1.0]hexan-6-yl)-1,2,4-oxadiazol-5-yl)methyl)-7-methyl-1,7-dihydro-6H-purin-6-one]	0.0293	0.031	–
Cn1cnc2ncn(Cc3nc([C@H]4[C@@H]5CN(c6ccc(C(F)(F)F)cc6)C[C@@H]54)no3)c(=O)c21 [Example Compound 31, 7-methyl-1-[[3-[(1R,5S,6r)-3-[4-(trifluoromethyl)phenyl]-3-azabicyclo[3.1.0]hexan-6-yl]-1,2,4-oxadiazol-5-yl]methyl]purin-6-one]	0.0971	–	–

Compounds with a lower IC50 [1], results first:

IC50 [1] [µM]	IC50 [2] [µM]	TRPA1 IC50 compared with 3-azabicyclo[3.1.0]hexene linker and cyclobutylene linker analogues (bicyclo[3.1.0]hexene linker compounds versus same-substituent analogues (compounds 16, 191; 26, 1))	Compound
0.0215	0.0039	–	Cn1cnc2ncn(Cc3nc([C@H]4[C@@H]5CN(c6ccc(F)c(F)c6)C[C@@H]54)no3)c(=O)c21 [Example Compound 105, 1-((3-((1R,5S,6r)-3-(3,4-difluorophenyl)-3-azabicyclo[3.1.0]hexan-6-yl)-1,2,4-oxadiazol-5-yl)methyl)-7-methyl-1,7-dihydro-6H-purin-6-one]
0.0206	0.0031	–	Cn1cnc2ncn(Cc3nc([C@H]4[C@@H]5CN(c6cc(F)cc(F)c6)C[C@@H]54)no3)c(=O)c21 [Example Compound 92, 1-((3-((1R,5S,6r)-3-(3,5-difluorophenyl)-3-azabicyclo[3.1.0]hexan-6-yl)-1,2,4-oxadiazol-5-yl)methyl)-7-methyl-1,7-dihydro-6H-purin-6-one]
0.0194	0.01	–	Cc1cc(C#N)nc2ncn(Cc3nc([C@H]4C[C@](F)(c5ccc(Cl)cc5)C4)no3)c(=O)c12 [Example Compound 158, 3-((3-((1s,3s)-3-(4-chlorophenyl)-3-fluorocyclobutyl)-1,2,4-oxadiazol-5-yl)methyl)-5-methyl-4-oxo-3,4-dihydropyrido[2,3-d]pyrimidine-7-carbonitrile]
0.0151	–	–	Cc1ccnc2ncn(Cc3nc([C@H]4C[C@](F)(c5cccc(Cl)c5)C4)no3)c(=O)c12 [Example Compound 210, 3-((3-((1s,3s)-3-(3-chlorophenyl)-3-fluorocyclobutyl)-1,2,4-oxadiazol-5-yl)methyl)-5-methylpyrido[2,3-d]pyrimidin-4(3H)-one]
0.0138	0.0017	improved TRPA1 IC50 values	Cn1cnc2ncn(Cc3nc([C@H]4[C@@H]5C=C(c6ccccc6)C[C@@H]54)no3)c(=O)c21 [Example Compound 225, 7-methyl-1-((3-((1S,5S,6R)-3-phenylbicyclo[3.1.0]hex-2-en-6-yl)-1,2,4-oxadiazol-5-yl)methyl)-1,7-dihydro-6H-purin-6-one]
0.013	0.0024	–	Cn1cnc2ncn(Cc3nc([C@H]4[C@@H]5C=C(c6cc(F)cc(F)c6)C[C@@H]54)no3)c(=O)c21 [Example Compound 270, 7-methyl-1-[[3-[(1S,5S,6R)-3-(3,5-difluorophenyl)-6-bicyclo[3.1.0]hex-2-enyl]-1,2,4-oxadiazol-5-yl]methyl]purin-6-one]
0.0125	–	–	Cn1cnc2ncn(Cc3nc([C@H]4[C@@H]5CN(c6cc(Cl)ccc6F)C[C@@H]54)no3)c(=O)c21
0.0106	0.0036	–	Cn1nnc2ncn(Cc3nc([C@H]4[C@@H]5CN(c6cccc(Cl)c6)C[C@@H]54)no3)c(=O)c21 [Example Compound 139, 6-((3-((1R,5S,6r)-3-(3-chlorophenyl)-3-azabicyclo[3.1.0]hexan-6-yl)-1,2,4-oxadiazol-5-yl)methyl)-1-methyl-1,6-dihydro-7H-[1,2,3]triazolo[4,5-d]pyrimidin-7-one]
0.00397	–	–	Cn1c(=O)ccc2ncn(Cc3nc([C@H]4[C@@H]5CN(c6cccc(Cl)c6)C[C@@H]54)no3)c(=O)c21 [Example Compound 173, 3-((3-((1R,5S,6r)-3-(3-chlorophenyl)-3-azabicyclo[3.1.0]hexan-6-yl)-1,2,4-oxadiazol-5-yl)methyl)-5-methyl-3,5-dihydropyrido[3,2-d]pyrimidine-4,6-dione]
